Test results from patent US20190218588A1, “NOVEL CELL CULTURE METHOD, CELL CULTURE SYSTEM AND USES THEREOF” (priority 2016, published 2019).

Test system: human hepatocytes cultured in human plasma medium
Type: cell-based

## COc1cc2c(c3oc(=O)c4c(c13)CCC4=O)[C@@H]1C=CO[C@@H]1O2 [Aflatoxin B1]
  UC50 value after day 10 treatment relative to 2-day treatment (fold lower): 19 ×
  cytotoxicity to human hepatocytes: cytotoxic
